The results in this text go back to patent publication US20230146233A1, “A CLASS OF POLYCYCLIC COMPOUNDS INHIBITING RNA HELICASE DHX33 AND THE APPLICATION THEREOF” (Shenzhen KeYe Life Technologies, Co., Ltd, priority 2020, published 2023).

Structures are written as SMILES. pIC50: −log10 of the molar value.

This assay has as its system U251-MG cells. Kind of assay: Half-maximal cell-inhibitory concentration on U251-MG cells (CCK-8). Particulars: Homo sapiens, U-251, U251-MG cells (DHX33-overexpressing cancer cell strain), 48 hours, read-out: IC50 (half-maximal inhibitory concentrations of compounds on U251-MG cells). The class given is cell-based. On the procedure:
U251-MG cells were purchased from the cell bank of the Chinese Academy of Sciences. Cells were cultured in MEM medium containing 10% fetal bovine serum (FBS), 2 mM L-glutammie, streptomycmn and penicillin. The growth conditions were set as follows: a humidified cell incubator (37° C., 5% CO2). Cells were passaged every 3 days and were discarded after 10 passages.
U251-MG cells (a […]-overexpressing cancer cell strain) were seeded on a 96-well plate at 1×10^4 cells/100 μl/well. After the cells were completely attached, the compounds were added to the cell culture medium at a concentration of 5 nM, 10 nM, 25 nM, 50 nM, 100 nM, […], 500 nM, 1000 nM, 2000 nM, […] or 20 μM, and the resulting mixture was uniformly mixed with a multichannel pipette. After the cells were incubated with the compound for 48 hours, CCK-8 reagent (Yeasen Biotechnology (Shanghai) Co., Ltd.) was added to the medium in the 96-well plate in accordance with the standard procedure. After being incubated for 2 hours, the plate was read with a microplate reader (OD=450 nm). The experiment was repeated three times, the inhibition curve of the compound at different concentrations was plotted, and the half-maximal inhibitory concentration (IC50) of the compound was calculated.
`Cc1oc(-n2c(C)cc(/C=C(\C#N)c3nc4ccc(Cl)cc4[nH]3)c2C)c(C#N)c1C` [AB24201, (E)-2-(3-(2-(6-chloro-1H-benzo[d]imidazol-2-yl)-2-cyanovinyl)-2,5-dimethyl-1H-pyrrol-1-yl)-4,5-dimethylfuran-3-carbonitrile]: the pIC50 is 5.30 to 6.00.
Under `Cc1ccc2nc(/C(C#N)=C/c3cc(C)n(-c4oc(C)c(C)c4C#N)c3C)[nH]c2c1` [AB24203, (E)-2-(3-(2-cyano-2-(6-methyl-1H-benzo[d]imidazol-2-yl]vinyl)-2,5-dimethyl-1H-pyrrol-1-yl)-4,5-dimethylfuran-3-carbonitrile] stands 5.30 to 6.00.
The same measure for `Cc1oc(-n2c(C)cc(/C=C(\C#N)c3nc4ccc(C(=O)NCCN(C)C)cc4[nH]3)c2C)c(C#N)c1C` [AB24206, (E)-2-(1-cyano-2-(1-(3-cyano-4,5-dimethylfuran-2-yl)-2,5-dimethyl-1H-pyrrol-3-yl)vinyl)-N-(2-(dimethylamino)ethyl)-1H-benzo[d]imidazole-6-carboxamide]: 5.30 to 6.00; for `CCOC(=O)c1ccc2nc(/C(C#N)=C/c3cc(C)n(-c4oc(C)c(C)c4C#N)c3C)[nH]c2c1` [AB24208, ethyl (E)-2-(1-cyano-2-(1-(3-cyano-4,5-dimethylfuran-2-yl)-2,5-dimethyl-1H-pyrrol-3-yl)vinyl)-1H-benzo[d]imidazole-6-carboxylate]: 4.70 to 5.30.
The same measure for `Cc1oc(-n2c(C)cc(/C=C(\C#N)c3nc4ccc(Br)cc4[nH]3)c2C)c(C#N)c1C` [AB24213, (E)-2-(3-(2-(6-bromo-1H-benzo[d]imidazol-2-yl)-2-cyanovinyl)-2,5-dimethyl-1H-pyrrol-1-yl)-4,5-dimethylfuran-3-carbonitrile]: 5.30 to 6.00.
Consider `Cc1oc(-n2c(C)cc(/C=C(\C#N)c3nc4cc(Cl)c(Cl)cc4[nH]3)c2C)c(C#N)c1C` [AB24214, (E)-2-(3-(2-cyano-2-(5,6-dichloro-1H-benzo[d]imidazol-2-yl)vinyl)-2,5-dimethyl-1H-pyrrol-1-yl)-4,5-dimethylfuran-3-carbonitrile], for which the pIC50 is 4.70 to 5.30.
The same measure for `Cc1oc(-n2c(C)cc(/C=C(\C#N)c3nc4ccc([N+](=O)[O-])cc4[nH]3)c2C)c(C#N)c1C` [AB24217, (E)-2-(3-(2-cyano-2-(6-nitro-1H-benzo[d]imidazol-2-yl)vinyl)-2,5-dimethyl-1H-pyrrol-1-yl)-4,5-dimethylfuran-3-carbonitrile]: 4.70 to 5.30.
Under `Cc1oc(-n2c(C)cc(/C=C(\C#N)c3nc4ccc(N)cc4[nH]3)c2C)c(C#N)c1C` [AB24221, (E)-2-(3-(2-(6-amino-1H-benzo[d]imidazol-2-yl)-2-cyanovinyl)-2,5-dimethyl-1H-pyrrol-1-yl)-4,5-dimethylfiran-3-carbonitrile] stands 4.70 to 5.30; under `Cc1cc(/C=C(\C#N)c2nc3ccccc3[nH]2)c(C)n1-c1ccc(C#N)cc1` [AB24223], 4.70 to 5.30.
Under `Cc1oc(-n2c(C)cc(/C=C(\C#N)c3nc4ccc(CO)cc4[nH]3)c2C)c(C#N)c1C` [AB24225, (E)-2-(3-(2-cyano-2-(6-(hydroxymethyl)-1H-benzo[d]imidazol-2-yl)vinyl)-2,5-dimethyl-1H-pyrrol-1-yl)-4,5-dimethylfuran-3-carbonitrile] stands 5.30 to 6.00; under `Cc1cc(/C=C(\C#N)c2nc3ccccc3[nH]2)c(C)n1-c1ccccc1C#N` [AB24227], 4.70 to 5.30; under `COc1cc2nc(/C(C#N)=C/c3cc(C)n(-c4oc(C)c(C)c4C#N)c3C)[nH]c2cc1OC` [AB24229, (E)-2-(3-(2-cyano-2-(5,6-dimethoxy-1H-benzo[d]imidazol-2-yl)vinyl)-2,5-dimethyl-H-pyrrol-1-yl)-4,5-dimethylfuran-3-carbonitrile], 5.30 to 6.00.
Regarding `Cc1cc(/C=C(\C#N)c2nc3ccccc3[nH]2)c(C)n1-c1cccs1` [AB24233], the pIC50 was 4.70 to 5.30.
Under `Cc1ccc(-n2c(C)cc(/C=C(\C#N)c3nc4ccccc4[nH]3)c2C)cc1` [AB24237] stands 4.70 to 5.30.
The same measure for `Cc1oc(-n2c(C)cc(/C=C(\C#N)c3nc4cc(Cl)cc(Cl)c4[nH]3)c2C)c(C#N)c1C` [AB24239]: 5.30 to 6.00; for `COc1cc2[nH]c(/C(C#N)=C/c3cc(C)n(-c4oc(C)c(C)c4C#N)c3C)nc2cc1F` [AB24246, (E)-2-(3-(2-cyano-2-(5-fluoro-6-methoxy-1H-benzo[d]imidazol-2-yl]vinyl)-2,5-dimethyl-1H-pyrrol-1-yl)-4,5-dimethylfuran-3-carbonitrile]: 5.30 to 6.00.
Turning to `Cc1cc(/C=C(\C#N)c2nc3ccccc3[nH]2)c(C)n1-c1ccccn1` [AB24258], the pIC50 was 4.70 to 5.30.
`COc1cc2[nH]c(/C(C#N)=C/c3cc(C)n(-c4oc(C)c(C)c4C#N)c3C)nc2cc1Br` [AB24266, (E)-2-(3-(2-(5-bromo-6-methoxy-1H-benzo[d]imidazol-2-yl]-2-cyanovinyl)-2,5-dimethyl-1H-pyrrol-1-yl)-4,5-dimethylfuran-3-carbonitrile]: the pIC50 is 5.30 to 6.00.
Under `CC(=O)Nc1ccc(-n2c(C)cc(/C=C(\C#N)c3nc4ccccc4[nH]3)c2C)cc1` [AB24267] stands 4.70 to 5.30.
Consider `COC(=O)c1c(-n2c(C)cc(/C=C(\C#N)c3nc4ccccc4[nH]3)c2C)sc(C)c1C` [AB24273, methyl (E)-2-(3-(2-(1H-benzo[d]imidazol-2-yl)-2-cyanovinyl)-2,5-dimethyl-1H-pyrrol-1-yl)-4,5-dimethylthiophene-3-carboxylate], for which the pIC50 was 6.00 to 7.00.
For `Cc1cc(/C=C(\C#N)c2nc3ccccc3[nH]2)c(C)n1-c1csc(C#N)c1` [AB24276], the pIC50 was 4.70 to 5.30.
With `Cc1csc(-n2c(C)cc(/C=C(\C#N)c3nc4ccccc4[nH]3)c2C)c1C#N` [AB24277], the pIC50 is 4.70 to 5.30.
Under `COc1ccc2nc(/C(C#N)=C/c3cc(C)n(-c4oc(C)c(C)c4C#N)c3C)[nH]c2n1` [AB24281, (E)-2-(3-(2-cyano-2-(5-methoxy-3H-imidazo[4,5-b]pyridin-2-yl)vinyl)-2,5-dimethyl-1H-pyrrol-1-yl)-4,5-dimethylfuran-3-carbonitrile] stands 5.30 to 6.00.
The same measure for `Cc1nn(-c2ccccc2)c(C)c1/C=C(\C#N)c1nc2ccccc2[nH]1` [AB24284, (E)-2-(1H-benzo[d]imidazol-2-yl)-3-(3,5-dimethyl-1-phenyl-1H-pyrazol-4-yl)acrylonitrile]: 4.70 to 5.30; for `Cc1nn(-c2cccc(C(F)(F)F)c2)c(C)c1/C=C(\C#N)c1nc2ccccc2[nH]1` [AB24285, (E)-2-(1H-benzo[d]imidazol-2-yl)-3-(3,5-dimethyl-1-(3-(trifluoromethyl)phenyl)-1H-pyrazol-4-yl)acrylonitrile]: 4.70 to 5.30; for `Cc1oc(-n2c(C)cc(/C=C(\C#N)c3nc4cc5c(cc4[nH]3)OCCO5)c2C)c(C#N)c1C` [AB24287, (E)-2-(3-(2-cyano-2-(6,7-dihydro-1H-[1,4]dioxin[2′,3′: 4,5]benzo[1,2-d]imidazol-2-yl)vinyl)-2,5-dimethyl-1H-pyrrol-1-yl)-4,5-dimethylfuran-3-carbonitrile]: 5.30 to 6.00.
The same measure for `COc1cc2nc(/C(C#N)=C/c3cc(C)n(-c4ccncc4Cl)c3C)[nH]c2cn1` [AB24289, (E)-3-(1-(3-chloropyridin-4-yl)-2,5-dimethyl-1H-pyrrol-3-yl)-2-(6-methoxy-3H-imidazo[4,5-c]pyridin-2-yl)acryonitrile]: 5.30 to 6.00; for `Cc1nn(-c2ccccc2OC(F)(F)F)c(C)c1/C=C(\C#N)c1nc2ccccc2[nH]1` [AB24290, (E)-2-(1H-benzo[d]imidazol-2-yl)-3-(3,5-dimethyl-1-(2-(trifluoromethoxy)phenyl)-1H-pyrazol-4-yl)acrylonitrile]: 4.70 to 5.30.
For the compound `COc1cc2nc(/C(C#N)=C/c3cc(C)n(-c4ccncc4C)c3C)[nH]c2cn1` [AB24295, (E)-3-(2,5-dimethyl-1-(3-methylpyridin-4-yl)-1H-pyrrol-3-yl)-2-(6-methoxy-3H-imidazo[4,5-c]pyridin-2-yl)acrylonitrile], the pIC50 was 5.30 to 6.00.
Under `COc1cc2nc(/C(C#N)=C/c3cc(C)n(-c4ccncc4F)c3C)[nH]c2cn1` [AB24300, (E)-3-(1-(3-fluoropyridin-4-yl)-2,5-dimethyl-1H-pyrrol-3-yl)-2-(6-methoxy-3H-imidazo[4,5-c]pyridin-2-yl)acrylonitrile] stands 5.30 to 6.00; under `COc1cnc2[nH]c(/C(C#N)=C/c3cc(C)n(-c4sc(C)c(C)c4C#N)c3C)nc2c1` [AB24301, (E)-2-(3-(2-cyano-2-(6-methoxy-3H-imidazo[4,5-b]pyridin-2-yl)vinyl)-2,5-dimethyl-1H-pyrrol-1-yl)-4,5-dimethylthiophene-3-carbonitrile], 6.00 to 7.00.
Turning to `COc1cncc2nc(/C(C#N)=C/c3cc(C)n(-c4sc(C)c(C)c4C#N)c3C)[nH]c12` [AB24302, (E)-2-(3-(2-cyano-2-(7-methoxy-1H-imidazo[4,5-c]pyridyl-2-yl)vinyl)-2,5-dimethyl-1H-pyrrol-1-yl)-4,5-dimethylthiophene-3-carbonitrile], the pIC50 is 5.30 to 6.00.
Under `COc1ccc2nc(/C(C#N)=C/c3cc(C)n(-c4ccccc4C#N)c3C)[nH]c2c1` [AB24307, (E)-2-(3-(2-cyano-2-(6-methoxy-1H-benzo[d]imidazol-2-yl]vinyl)-2,5-dimethyl-1H-pyrrol-1-yl)benzonitrile] stands 4.70 to 5.30.
